# Laboratory results: patent US20210345614A1, “APPLICATION OF 7-CARBOXYBENZO[1,2,3]THIADIAZOLE AMIDES AS PLANT STIMULANTS” (ADAM MICKIEWICZ UNIVERSITY FOUNDATION, priority 2015, published 2021)
# Columns and labels:
# powdery mildew fungi = assay: BTHWA effect on the infectivity of fungi, growth in nutrition medium; type: cell-based; conditions: BTHWA 40 mg/L formulation, after 2 days
# Protocol: (§1) Purified tobacco mosaic virus (TMV) at a concentration of approx. 3 μg/ml was mixed with N-methyl-N-methoxy-7-carboxybenzo[1,2,3]thiadiazole amide (BTHWA) formulation (concentration 40 mg/L) in a 1:1 volume ratio and incubated for 30 min at room temperature (treated leaves). The control was TMV incubated in water. Both virus suspensions were used to mechanically infect tobacco leaves cv. xanthi. Local necrotic spots (hypersensitivity, local infection) produced on the tobacco leaves were measured.
# The procedure as described in Example 1 was followed, however, a powdery mildew fungi was used, which was then incubated in a nutrition medium.
# [1] = tested on: Pseudomonas syringe pv. tomato; assay: BTHWA effect on the infectivity of bacteria, growth in Mueller-Hinton broth; type: cell-based; conditions: BTHWA 40 mg/L formulation, after 2 days
# Protocol: as §1
# The procedure as described in Example 1 was followed, however, the bacterium Pseudomonas syringe pv. tomato was used. The suspensions formed were incubated in a Mueller-Hinton broth nutrition medium. After 2 days, the concentration of bacteria on the treated plates was compared to the control.
# Powdery mildew = assay: Protection of tomato against fungal infection of Powdery mildew; type: in vivo, Tomato Lycopersicon esculentum Mill
# Protocol: Tomato plants in the phase of first pair of developed true leaves were watered twice with BTHWA at a concentration of 20 mg/L, at a weekly interval. Control tomato plants were treater with water only. One week after the second treatment with BTHWA, Powdery mildew fungi suspension was introduced to the leaf using an insulin syringe (without a needle). The suspension was prepared from a culture in solid medium solid. Protection against biotic stress was evaluated based on comparing the area of the leaves infected by the fungi. […] The procedure as described in Example 18 was followed, however, the plants were sprayed.
# Tomato plants [2] = assay: Protection against abiotic stress in tomato caused by lack of water; type: in vivo; conditions: watered twice 20 mg/L; 10 days after cessation of watering
# Protocol: Tomato plants in the phase of first pair of developed true leaves were watered twice with BTHWA at concentration of 20 mg/L, at a weekly intervals. Control tomato plants were treated with water only. A week after the second treatment, plants were exposed to a stress factor in the form of lack of access to water.
# Tomato plants [3] = assay: Protection against abiotic stress in tomato caused by herbicide (glyphosate); type: in vivo; conditions: watered twice 20 mg/L; glyphosate 0.005% aqueous solution; 10 days after herbicide application
# Protocol: Tomato plants in the phase of first pair of developed true leaves were watered twice with BTHWA at concentration of 20 mg/L, at a weekly intervals. Control tomato plants were treated with water only.
# Brome Mosaic Virus BMV = assay: Protection of barley against Brome Mosaic Virus infection by watering; type: in vivo
# Protocol: […] Control barley plants were treated with water only. One week after the second application of BTHWA, in each plant, one young developed leaf was sprinkled with carborundum to obtain small scratches, which helped in the virus infection.
# [4] = tested on: Pseudomonas syringe pv. tomato; assay: Protection of tobacco against bacterial infection of Pseudomonas syringe pv. tomato; type: in vivo, Nicotiana tabacum cv. xanthi
# Protocol: Tobacco plants at the 3 developed leaves stage were watered (applied at the roots) twice in weekly intervals with BTHWA solution at a concentration of 20 mg/L. Control tobacco plants were irrigated with water only. One week after the second treatment, a Pseudomonas syringe pv. tomato bacterial suspension, at a concentration of 10^5 CFU/cm^3 was transferred to the leaf by using an insulin syringe (without a needle). The bacterial suspension was prepared from two-day syringe pv. tomato culture on a solid medium. Protection against biotic stress was evaluated based on the amount of bacterial growth in the leaves at the point of introduction followed by the formation of necrotic spots, and this was compared with the control. […] The procedure as described in Example 12 was followed, however, the effectiveness of BTHWA in protecting plants against biotic stress was tested against the bacterial cell concentration raised to approx. 10^6 […].
# [5] = tested on: Tobacco plants (Nicotiana tabacum) var. xanthi; assay: Protection against abiotic stress in tobacco caused by herbicide (glyphosate); type: in vivo; conditions: watered twice 20 mg/l; glyphosate 0.005% aqueous solution; 10 days after herbicide application
# Protocol: Tobacco plants (Nicotiana tabacum) var. […] stage of 3 developed leaves were watered twice with solution of BTHWA at concentration of 20 mg/l, at a weekly interval. Control […] plants were treated with water only.
# [6] = tested on: tobacco mosaic virus (TMV); assay: BTHWA effect on the infectivity of tobacco mosaic virus (virus pre-incubated with compound, necrotic spots on tobacco leaves); type: in vivo, tobacco cv. xanthi; conditions: TMV approx. 3 μg/ml incubated 30 min with BTHWA 40 mg/L 1:1; after 5 days
# Protocol: as §1
# [7] = tested on: Pseudomonas syringe pv. tomato; assay: Protection of tomato against bacterial infection of Pseudomonas syringe pv. tomato; type: in vivo, Tomato Lycopersicon esculentum Mill; conditions: sprayed twice, 20 mg/L
# Protocol: Tomato plants in the phase of first pair of developed true leaves were watered twice with BTHWA at a concentration of 20 mg/L, at a weekly interval. Control tomato plants were treated with water only. One week after the second treatment Pseudomonas syringe pv. tomato bacterial suspension at a concentration of 10^5 CFU/cm^3 was introduced to the leaf using an insulin syringe (without a needle). Bacterial suspension was prepared from two-day Pseudomonas syringe pv. tomato culture on solid medium. Protection against biotic stress was evaluated based on the amount of bacterial growth in the leaves at the point of introduction followed by the formation of necrotic spots, and this compared with the control. […] The procedure as described in Example 16 was followed, however, the plants were sprayed. BTHWA at the concentration of 20 mg/L was applied twice by spraying.
# [8] = tested on: tobacco mosaic virus (TMV); assay: TMV-tobacco cv. xanthi model, protection against biotic stress (necrotic spots); type: in vivo, Nicotiana tabacum cv. xanthi; conditions: sprayed twice at weekly intervals with 10 mg/L
smiles,measurement,setting,value
"CON(C)C(=O)c1cccc2nnsc12 [BTHWA, N-methyl-N-methoxy-7-carboxybenzo[1,2,3]thiadiazole amide]",differences in fungal growth on the treated plates and control,powdery mildew fungi,< 5%
same,growth differences between the control medium and the treated medium,[1],< 5%
same,protection against the effects of fungal infection,"Powdery mildew; 10 mg/L, watering and spraying",almost completely securing plants from the effects of fungal infection
same,protection against the effects of fungal infection,"Powdery mildew; sprayed twice, 20 mg/L",fully protecting plants against the effects of fungal infection
same,fungal infection and formation of infected leaf areas,"Powdery mildew; watered twice at a weekly interval, 20 mg/L",fungal infection and formation of infected areas were not observed
same,total mass of the untreated plants lower than the weight of the treated plants,Tomato plants [2],10%
same,lesser negative effect of the herbicide compared to the control,Tomato plants [3],30%
same,biotic stress effects (disease symptoms) compared to control,"Brome Mosaic Virus BMV; watered twice at weekly intervals with 70 ml of 20 mg/L, two weeks after BMV infection",showed no presence of biotic stress effects
same,prevention of biotic stress caused by BMV infection,Brome Mosaic Virus BMV; watered with 10 mg/L,65%
same,protection against the effects of bacterial infection,"[4]; 10 mg/L, applied by watering or spraying",completely protecting the treated plants from the effects of bacterial infection
same,protection against the effects of bacterial infection,"[4]; sprayed twice at weekly intervals, 20 mg/L",fully protects the plants against the effects of bacterial infection
same,bacterial infection and formation of necrotic spots,"[4]; watered twice at weekly intervals, 20 mg/L, bacteria 10^5 CFU/cm^3",these effects were not observed
same,local necrotic spots at elevated bacterial cell concentration,"[4]; watering as in Example 12, bacteria approx. 10^6 CFU/cm",no local necrotic spots were observed
same,lesser negative effect of the herbicide compared to the control,[5],26%
same,difference in number of necrotic spots between control and treated leaves,[6],12%
same,protection against the effects of bacterial infection,[7],fully protecting plants against the effects of bacterial infection
same,protection against biotic stress caused by TMV infection,[8],protected the treated leaves against biotic stress
